Measurements from patent US8399444B2, “Bicyclic imidazole as DP1 receptor antagonists” (GlaxoSmithKline Intellectual Property Development Ltd., priority 2008, dated 2013).
Values joined by “and” are separate entries in the source; they are usually repeats but may differ in a detail not shown here. Equal entries are not always repeated. Structures can show the parent of a compound that is named as a salt.

Target: T1, Prostanoid DP1 receptor (Homo sapiens, UniProt Q13258)
T1 construct: expressed in transfected cells; host or cells: CHO K1
T1 sequence (Q13258 1-359): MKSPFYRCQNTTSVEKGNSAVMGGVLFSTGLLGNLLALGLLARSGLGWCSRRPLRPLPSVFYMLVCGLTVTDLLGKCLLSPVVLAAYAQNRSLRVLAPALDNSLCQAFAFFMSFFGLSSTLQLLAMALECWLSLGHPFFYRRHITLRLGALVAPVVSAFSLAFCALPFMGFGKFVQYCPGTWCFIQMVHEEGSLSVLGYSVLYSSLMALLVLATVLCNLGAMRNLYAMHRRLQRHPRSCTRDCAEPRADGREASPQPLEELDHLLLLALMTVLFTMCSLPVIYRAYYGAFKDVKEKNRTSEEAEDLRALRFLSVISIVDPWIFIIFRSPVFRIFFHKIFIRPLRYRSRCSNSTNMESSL
Experiment: Measurement of cAMP using TR-FRET LANCE assay: Prostanoid DP1
Type: cell-based
Details: CHO cells expressing DP1 receptor, antagonism of PGD2 (EC80) cAMP response; read-out: pKi value (converted)
Description: CHO K1 cells, stably expressing the Prostanoid DP1 receptor, were maintained in culture in DMEM/F12, supplemented with 5% FBS, 2 mM L-glutamine, 400 μg/mL hygromycin B in 95%: 5% air: CO2 at 37° C. Following harvest from culture, cells were centrifuged at 250 g at 4° C. for 10 minutes and re-suspended in ice cold dialysed FCS. Once the cells were in mono-suspension they were slowly mixed with an equal volume of ice cold 80% dialysed FCS: 20% DMSO (pre-mixed and chilled several hours earlier). The cells were then aliquoted into 1 mL tubes within a 96 well block (pre-cooled to 4° C.). Once sealed, the tubes were frozen in a controlled rate freezer. The frozen cells were then transferred to a −140° C. freezer for long term storage.
Measurement of cAMP Using TR-FRET LANCE™ Assays: Prostanoid DP1
The potency of the compounds were determined using a LANCE™ cAMP assay kit as per the kit instructions. Briefly, CHO cells expressing DP1 receptor were thawed at 37° C., diluted in PBS and centrifuged at 1000 RPM for 5 minutes. Cells were then re-suspended (2 million cells/mL) in stimulation buffer (HBSS containing 0.01% BSA, 500 μM FAC IBMX, 5 mmol/L HEPES adjusted to pH 7.4 with KOH.
Briefly, cells were added (10,000 cells/well at 5 μL addition) to low volume white Greiner polypropylene 384-well plate assay plates containing 0.1 μl test compound. Following a 15 minute incubation at room temperature, 5 μl of antibody solution (stimulation buffer containing Alexia fluor 647) containing PGD2 at twice the determined EC80 concentration was added. Plates were incubated for a further 30 minutes at room temperature then detection mixture was added (kit components; detection buffer, europiumW8044-labelled streptavidin and biotin cAMP at 10 μl/well). Plates were covered and incubated the room temperature for 1 hour before reading on a Viewlux Microplate Imager using TR-FRET label settings.
All compounds were dissolved in DMSO at a concentration of 10 mM and were prepared in 100% DMSO using a 1 in 4 dilution step to provide 11-point concentration—response curves. The dilutions were transferred to the assay plates ensuring that the DMSO concentration was constant across the plate at 1% for all assays.
All data were normalised to the mean of 16 high and 16 low control wells on each plate. A four parameter curve fit of the following form was then applied.
Where a is the minimum, b is the Hill slope, c is the XC50, and d is the maximum. Data are presented as the mean pXC50 (negative log 10 of the molar XC50) with the standard deviation (SD) of number of tests in the experiments.

SMILES	Ki
CC(C)c1nc2c(n1Cc1ccc(Cl)c(Cl)c1)C(CC(=O)O)CCC2 (centres unmarked) [Example 29, [1-[(3,4-dichlorophenyl)methyl]-2-(1-methylethyl)-4,5,6,7-tetrahydro-1H-benzimidazol-7-yl]acetic acid trifluoroacetic acid salt]	≤ 10 nM
CC(C)c1nc2c(n1[C@H](C)c1ccccc1)C(CC(=O)O)CCC2 (stereo partly drawn) [Example 31, {2-(1-methylethyl)-1-[(1R)-1-phenylethyl]-4,5,6,7-tetrahydro-1H-benzimidazol-7-yl}acetic acid ammonia salt]	≤ 100 nM
CC(C)c1nc2c(n1Cc1ccc(Cl)cc1)C(CC(=O)O)CC2 (centres unmarked) [Example 7, [3-[(4-chlorophenyl)methyl]-2-(1-methylethyl)-3,4,5,6-tetrahydrocyclopenta[d]imidazol-4-yl]acetic acid ammonia salt]	≤ 100 nM
CC(C)(C)c1nc2c(n1Cc1ccc(Cl)cc1)C(CC(=O)O)CCC2 (centres unmarked) [Example 23, [1-[(4-chlorophenyl)methyl]-2-(1,1-dimethylethyl)-4,5,6,7-tetrahydro-1H-benzimidazol-7-yl]acetic acid, formic acid salt]	≤ 100 nM
CC(C)c1nc2c(n1Cc1ccc(Cl)cc1)C(CC(=O)O)CCCC2 (centres unmarked) [Example 1, [3-[(4-chlorophenyl)methyl]-2-(1-methylethyl)-3,4,5,6,7,8-hexahydrocyclohepta[d]imidazol-4-yl]acetic acid]	≤ 10 nM
CC(C)c1nc2c(n1Cc1ccc(Cl)cc1)C(CC(=O)O)CCC2 (centres unmarked) [Example 15, [1-[(4-chlorophenyl)methyl]-2-(1-methylethyl)-4,5,6,7-tetrahydro-1H-benzimidazol-7-yl]acetic acid]	≤ 10 nM
CC(C)c1nc2c(n1Cc1ccc(Cl)c(Cl)c1)C(CC(=O)O)CC2 (single isomer, unassigned; isomer 1) [Example 10, (+)-[3-[(3,4-dichlorophenyl)methyl]-2-(1-methylethyl)-3,4,5,6-tetrahydrocyclopenta[d]imidazol-4-yl]acetic acid ammonia salt (Isomer 1)]	≤ 10 nM
CC(C)c1nc2c(n1Cc1ccc(Cl)cc1)C(OCC(=O)O)CCC2 (centres unmarked) [Example 24, {[1-[(4-chlorophenyl)methyl]-2-(1-methylethyl)-4,5,6,7-tetrahydro-1H-benzimidazol-7-yl]oxy}acetic acid, formic acid salt]	≤ 100 nM
CC(C)(C)c1nc2c(n1Cc1ccc(Cl)cc1)C(CC(=O)O)CC2 (centres unmarked) [Example 14, [3-[(4-chlorophenyl)methyl]-2-(1,1-dimethylethyl)-3,4,5,6-tetrahydrocyclopenta[d]imidazol-4-yl]acetic acid ammonia salt]	≤ 100 nM
CC(C)c1nc2c(n1Cc1ccc(Cl)c(Cl)c1)C(CC(=O)O)CCC2 (single isomer, unassigned; isomer 2) [Example 20, (−)-[1-[3,4-dichlorophenyl)methyl]-2-(1-methylethyl)-4,5,6,7-tetrahydro-1H-benzimidazol-7-yl]acetic acid ammonia salt (Isomer 2)]	≤ 100 nM and ≤ 10 nM and ~2 nM
CC(C)c1nc2c(n1Cc1ccc(Cl)cc1Cl)C(CC(=O)O)CCC2 (centres unmarked) [Example 18, [1-(2,4-dichlorobenzyl)-2-isopropyl-4,5,6,7-tetrahydro-1H-benzimidazol-7-yl]acetic acid ammonia salt]	≤ 100 nM
CC(C)c1nc2c(n1Cc1ccc(Cl)cc1)C(CC(=O)O)CCC2 (single isomer, unassigned; isomer 2) [Example 17, (−)-[1-[(4-chlorophenyl)methyl]-2-(1-methylethyl)-4,5,6,7-tetrahydro-1H-benzimidazol-7-yl]acetic acid ammonia salt (Isomer 2)]	≤ 10 nM
CC(C)c1nc2c(n1Cc1ccc(Cl)c(Cl)c1)C(OCC(=O)O)CCCC2 (single isomer, unassigned; isomer 2) [Example 37, {[3-[(3,4-dichlorophenyl)methyl]-2-(1-methylethyl)-3,4,5,6,7,8-hexahydrocyclohepta[d]imidazol-4-yl]oxy}acetic acid ammonia salt (Isomer 2)]	≤ 10 nM
CC(C)(C)c1nc2c(n1Cc1ccc(Cl)cc1)C(CC(=O)O)CCCC2 (centres unmarked) [Example 6, [3-[(4-chlorophenyl)methyl]-2-(1,1-dimethylethyl)-3,4,5,6,7,8-hexahydrocyclohepta[d]imidazol-4-yl]acetic acid]	≤ 10 nM
CC(C)c1nc2c(n1Cc1ccc(Cl)c(Cl)c1)C(OCC(=O)O)CCCC2 (single isomer, unassigned; isomer 1) [Example 36, {[3-[(3,4-dichlorophenyl)methyl]-2-(1-methylethyl)-3,4,5,6,7,8-hexahydrocyclohepta[d]imidazol-4-yl]oxy}acetic acid ammonia salt (Isomer 1)]	≤ 100 nM
CC(C)c1nc2c(n1Cc1ccc(Cl)c(Cl)c1)C(CC(=O)O)CCCC2 (single isomer, unassigned; isomer 2) [Example 5, [3-[(3,4-dichlorophenyl)methyl]-2-(1-methylethyl)-3,4,5,6,7,8-hexahydrocyclohepta[d]imidazol-4-yl]acetic acid (isomer 2)]	≤ 100 nM
CC(C)c1nc2c(n1Cc1ccc(Cl)cc1)C(OCC(=O)O)CCCC2 (centres unmarked) [Example 2]	≤ 100 nM
CC(C)c1nc2c(n1[C@H](C)c1ccc(Cl)cc1)C(CC(=O)O)CCC2 (stereo partly drawn) [Example 33, [1-[(1R)-1-(4-chlorophenyl)ethyl]-2-(1-methylethyl)-4,5,6,7-tetrahydro-1H-benzimidazol-7-yl]acetic acid ammonia salt]	≤ 100 nM
CC(C)c1nc2c(n1Cc1ccc(Cl)c(Cl)c1)C(CC(=O)O)CCCC2 (single isomer, unassigned; isomer 1) [Example 4, (+)-[3-[(3,4-dichlorophenyl)methyl]-2-(1-methylethyl)-3,4,5,6,7,8-hexahydrocyclohepta[d]imidazol-4-yl]acetic acid (isomer 1)]	≤ 10 nM
CC(C)c1nc2c(n1Cc1ccc(Cl)cc1)C(CC(=O)O)CCC2 (single isomer, unassigned; isomer 2) [Example 32, (−)-[1-[(4-chlorophenyl)methyl]-2-(1-methylethyl)-4,5,6,7-tetrahydro-1H-benzimidazol-7-yl]acetic acid (Isomer 2)]	≤ 10 nM
CC(C)c1nc2c(n1Cc1ccc(Cl)c(Cl)c1)C(CC(=O)O)CCCC2 (centres unmarked) [Example 3, [3-[(3,4-dichlorophenyl)methyl]-2-(1-methylethyl)-3,4,5,6,7,8-hexahydrocyclohepta[d]imidazol-4-yl]acetic acid ammonia salt]	≤ 10 nM
CC(C)c1nc2c(n1Cc1ccc(Cl)c(Cl)c1)C(CC(=O)O)CCC2 (centres unmarked) [Example 19, [1-[(3,4-dichlorophenyl)methyl]-2-(1-methylethyl)-4,5,6,7-tetrahydro-1H-benzimidazol-7-yl]acetic acid]	≤ 10 nM
CC(C)c1nc2c(n1Cc1ccc(Cl)c(Cl)c1)C(OCC(=O)O)CCCC2 (centres unmarked) [Example 35, {[3-[(3,4-dichlorophenyl)methyl]-2-(1-methylethyl)-3,4,5,6,7,8-hexahydrocyclohepta[d]imidazol-4-yl]oxy}acetic acid hydrochloride]	≤ 100 nM
CC(C)c1nc2c(n1Cc1ccc(Cl)cc1)C(OCC(=O)O)CCC2 (single isomer, unassigned; isomer 2) [Example 26, {[1-[(4-chlorophenyl)methyl]-2-(1-methylethyl)-4,5,6,7-tetrahydro-1H-benzimidazol-7-yl]oxy}acetic acid formic acid salt (isomer 2)]	≤ 10 nM
CC(C)c1nc2c(n1Cc1ccc(Cl)c(Cl)c1)[C@@H](CC(=O)O)CCC2 [Example 40, [(7R)-1-[(3,4-dichlorophenyl)methyl]-2-(1-methylethyl)-4,5,6,7-tetrahydro-1H-benzimidazol-7-yl]acetic acid]	≤ 100 nM and ≤ 10 nM and ~2.51 nM
CC(C)c1nc2c(n1Cc1ccc(Cl)cc1)C(CC(=O)O)CCC2 (centres unmarked) [Example 27, [1-[(4-chlorophenyl)methyl]-2-(1-methylethyl)-4,5,6,7-tetrahydro-1H-benzimidazol-7-yl]acetic acid ammonia salt]	≤ 100 nM
